Assay results taken from PubChem BioAssay (NCI).
“And” between values parts separate entries of the source, which are not always exact repeats. Equal values may be shown once.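 How tested: cells in 96-well plates exposed to compound for 48 hours at five concentrations. At the GI50, growth is halved. At the TGI there is no net growth.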

Assays:
Experiment in all cases: DTP human tumour cell line panel, 48 h
SNB-19 CNS = system: SNB-19 CNS
TK-10 renal = system: TK-10 renal
A549 NSCLC = system: A549 NSCLC
NCI/ADR-RES ovarian = system: NCI/ADR-RES ovarian
SF-268 CNS = system: SF-268 CNS
EKVX NSCLC = system: EKVX NSCLC
UACC-62 melanoma = system: UACC-62 melanoma
DU-145 prostate = system: DU-145 prostate
NCI-H522 lung = system: NCI-H522 lung
NCI-H226 lung = system: NCI-H226 lung
LOX IMVI melanoma = system: LOX IMVI melanoma
CAKI-1 renal = system: CAKI-1 renal
RXF 393 renal = system: RXF 393 renal
MCF7 breast = system: MCF7 breast
SK-OV-3 ovarian = system: SK-OV-3 ovarian
RPMI-8226 leukemia = system: RPMI-8226 leukemia
UO-31 renal = system: UO-31 renal
SN12C renal = system: SN12C renal
OVCAR-5 ovarian = system: OVCAR-5 ovarian
SK-MEL-5 melanoma = system: SK-MEL-5 melanoma
HL-60(TB) leukemia = system: HL-60(TB) leukemia
NCI-H23 lung = system: NCI-H23 lung
UACC-257 melanoma = system: UACC-257 melanoma
CCRF-CEM leukemia = system: CCRF-CEM leukemia
NCI-H460 lung = system: NCI-H460 lung
K-562 leukemia = system: K-562 leukemia
MALME-3M melanoma = system: MALME-3M melanoma
OVCAR-3 ovarian = system: OVCAR-3 ovarian
T-47D breast = system: T-47D breast
OVCAR-4 ovarian = system: OVCAR-4 ovarian
MDA-MB-435 = system: MDA-MB-435
SW-620 colon = system: SW-620 colon
M14 melanoma = system: M14 melanoma
SK-MEL-28 melanoma = system: SK-MEL-28 melanoma
HOP-62 NSCLC = system: HOP-62 NSCLC
HCT-116 colon = system: HCT-116 colon
SK-MEL-2 melanoma = system: SK-MEL-2 melanoma
HT29 colon = system: HT29 colon
KM12 colon = system: KM12 colon
MOLT-4 leukemia = system: MOLT-4 leukemia
786-0 renal = system: 786-0 renal
HS 578T breast = system: HS 578T breast
HCC-2998 colon = system: HCC-2998 colon
OVCAR-8 ovarian = system: OVCAR-8 ovarian
BT-549 breast = system: BT-549 breast
SR leukemia = system: SR leukemia
A498 renal = system: A498 renal
MDA-MB-231 breast = system: MDA-MB-231 breast
PC-3 prostate = system: PC-3 prostate
U251 CNS = system: U251 CNS
SF-539 CNS = system: SF-539 CNS
SNB-75 CNS = system: SNB-75 CNS
ACHN renal = system: ACHN renal
COLO 205 colon = system: COLO 205 colon
SF-295 CNS = system: SF-295 CNS
HCT-15 colon = system: HCT-15 colon
IGROV1 ovarian = system: IGROV1 ovarian

For `COc1cc(OC)c(/C=C/S(=O)(=O)Cc2ccc(OC)c(NCC(=O)O)c2)c(OC)c1`, the GI50 (SNB-19 CNS) was 139 nM and 244 nM, the TGI (SNB-19 CNS) was over 100000 nM and the TGI (TK-10 renal) was over 100000 nM. The GI50 (A549 NSCLC) was 229 nM and 75.5 nM, the TGI (A549 NSCLC) was over 100000 nM and the GI50 (NCI/ADR-RES ovarian) was 67.8 nM and 33.2 nM. The TGI (NCI/ADR-RES ovarian) was over 3120 nM, the GI50 (SF-268 CNS) was 292 nM and 153 nM and the TGI (SF-268 CNS) was over 100000 nM. The GI50 (EKVX NSCLC) was 127 nM and 83.4 nM, the TGI (EKVX NSCLC) was over 100000 nM and the TGI (UACC-62 melanoma) was over 100000 nM. For the same compound, the GI50 (DU-145 prostate) was 290 nM and 176 nM, the GI50 (NCI-H522 lung) was 37.4 nM and 20.5 nM and the TGI (NCI-H522 lung) was 213 nM and 60.8 nM. The GI50 (NCI-H226 lung) was > 2440 nM and 390 nM, the TGI (NCI-H226 lung) was over 100000 nM and the GI50 (LOX IMVI melanoma) was 150 nM and 134 nM. For the same compound, the TGI (LOX IMVI melanoma) was over 100000 nM, the TGI (CAKI-1 renal) was over 100000 nM and the GI50 (RXF 393 renal) was 72.6 nM and 46.7 nM. The TGI (RXF 393 renal) was over 100000 nM, the GI50 (MCF7 breast) was 109 nM and 58.6 nM and the TGI (MCF7 breast) was over 100000 nM. For the same compound, the GI50 (SK-OV-3 ovarian) was 442 nM and 99 nM, the TGI (SK-OV-3 ovarian) was over 100000 nM and the GI50 (RPMI-8226 leukemia) was 160 nM and 331 nM. For the same compound, the TGI (RPMI-8226 leukemia) was over 100000 nM, the TGI (UO-31 renal) was over 100000 nM and the GI50 (SN12C renal) was 207 nM and 251 nM. For the same compound, the TGI (SN12C renal) was over 100000 nM, the GI50 (OVCAR-5 ovarian) was 347 nM and 470 nM and the TGI (OVCAR-5 ovarian) was over 100000 nM. The GI50 (SK-MEL-5 melanoma) was 113 nM and 68.4 nM, the TGI (SK-MEL-5 melanoma) was 1290 nM and 1010 nM and the GI50 (HL-60(TB) leukemia) was 156 nM and 355 nM. For the same compound, the GI50 (NCI-H23 lung) was 263 nM and 136 nM, the TGI (NCI-H23 lung) was over 100000 nM and the TGI (UACC-257 melanoma) was over 100000 nM. The GI50 (CCRF-CEM leukemia) was 159 nM and 291 nM, the TGI (CCRF-CEM leukemia) was over 100000 nM and the GI50 (NCI-H460 lung) was 114 nM and 45.1 nM. For the same compound, the TGI (NCI-H460 lung) was over 100000 nM, the GI50 (K-562 leukemia) was 76.7 nM and 49 nM and the TGI (K-562 leukemia) was over 100000 nM. The TGI (MALME-3M melanoma) was over 100000 nM, the GI50 (OVCAR-3 ovarian) was 93.5 nM and 70.2 nM and the TGI (OVCAR-3 ovarian) was 533 nM. For the same compound, the GI50 (T-47D breast) was over 100000 nM, the TGI (T-47D breast) was over 100000 nM and the GI50 (OVCAR-4 ovarian) was > 2910 nM and 417 nM. For the same compound, the TGI (OVCAR-4 ovarian) was over 100000 nM, the GI50 (MDA-MB-435) was 31.2 nM and 28.3 nM and the TGI (MDA-MB-435) was 115 nM and 111 nM. The GI50 (SW-620 colon) was 130 nM and 108 nM, the TGI (SW-620 colon) was over 100000 nM and the GI50 (M14 melanoma) was 96.5 nM and 46.7 nM. It also gave a TGI (M14 melanoma) of over 10000 nM, a GI50 (SK-MEL-28 melanoma) of 340 nM and a TGI (SK-MEL-28 melanoma) of over 10000 nM. The GI50 (HOP-62 NSCLC) was 291 nM and 87.4 nM, the TGI (HOP-62 NSCLC) was over 100000 nM and the GI50 (HCT-116 colon) was 119 nM and 93.4 nM. The TGI (HCT-116 colon) was over 10000 nM, the GI50 (SK-MEL-2 melanoma) was 396 nM and 288 nM and the TGI (SK-MEL-2 melanoma) was over 100000 nM. For the same compound, the GI50 (HT29 colon) was 334 nM and 328 nM, the TGI (HT29 colon) was > 8570 nM and 1400 nM and the GI50 (KM12 colon) was 103 nM and 49.9 nM. For the same compound, the TGI (KM12 colon) was over 10000 nM, the GI50 (MOLT-4 leukemia) was 408 nM and 466 nM and the TGI (MOLT-4 leukemia) was over 100000 nM. For the same compound, the GI50 (786-0 renal) was 177 nM and 144 nM, the TGI (786-0 renal) was over 100000 nM and the GI50 (HS 578T breast) was 103 nM and 60.5 nM. For the same compound, the TGI (HS 578T breast) was over 100000 nM, the GI50 (HCC-2998 colon) was 247 nM and 237 nM and the TGI (HCC-2998 colon) was over 100000 nM. For the same compound, the GI50 (OVCAR-8 ovarian) was 273 nM and 104 nM, the TGI (OVCAR-8 ovarian) was over 100000 nM and the GI50 (BT-549 breast) was 193 nM and 400 nM. For the same compound, the TGI (BT-549 breast) was over 24500 nM, the GI50 (SR leukemia) was 181 nM and 206 nM and the TGI (SR leukemia) was over 100000 nM. The GI50 (A498 renal) was 66.8 nM and 44.8 nM, the GI50 (MDA-MB-231 breast) was 192 nM and 196 nM and the TGI (MDA-MB-231 breast) was over 2680 nM. For the same compound, the GI50 (PC-3 prostate) was 119 nM and 48.6 nM, the TGI (PC-3 prostate) was over 100000 nM and the GI50 (U251 CNS) was 193 nM and 47.7 nM. For the same compound, the TGI (U251 CNS) was over 100000 nM, the GI50 (SF-539 CNS) was 193 nM and 55.3 nM and the GI50 (SNB-75 CNS) was 68.2 nM and 49.2 nM. For the same compound, the TGI (SNB-75 CNS) was over 100000 nM, the GI50 (ACHN renal) was 178 nM and 452 nM and the TGI (ACHN renal) was over 100000 nM. The GI50 (COLO 205 colon) was 238 nM and 274 nM, the TGI (COLO 205 colon) was 714 nM and 738 nM and the GI50 (SF-295 CNS) was 68.7 nM and 44.6 nM. The TGI (SF-295 CNS) was over 100000 nM, the GI50 (HCT-15 colon) was 127 nM and 241 nM and the TGI (HCT-15 colon) was over 100000 nM. The GI50 (IGROV1 ovarian) was 152 nM and 244 nM and the TGI (IGROV1 ovarian) was over 100000 nM.
